According to PubChem BioAssay AID1259407 (Chemical Carcinogenesis Research Information System (CCRIS), 2018):
The source made the active and inactive calls. The rule behind the calls is not given here.

System: CCRIS mutagenicity, Ames/micronucleus/aberration tests
Assay: CCRIS mutagenicity studies
[1] = Test System: AMES SALMONELLA TYPHIMURIUM, Strain/Indicator: TA100, Metabolic Activation: NONE, Method: STANDARD PLATE

| Structure (SMILES) | mutagenic call (Test System: AMES SALMONELLA TYPHIMURIUM, Strain/Indicator: TA100, Metabolic Activation: HAMSTER, LIVER, S-9, AROCLOR 1254 (10%), Method: PREINCUBATION) | mutagenic call (Test System: AMES SALMONELLA TYPHIMURIUM, Strain/Indicator: TA100, Metabolic Activation: NONE, Method: PREINCUBATION) | mutagenic call [1] | mutagenic call (Test System: AMES SALMONELLA TYPHIMURIUM, Strain/Indicator: TA100, Metabolic Activation: RAT LIVER S-9, PHENOBARBITAL/METHYLCHOLANTHRENE (2 OR 10%), Method: STANDARD PLATE) | mutagenic call (Test System: AMES SALMONELLA TYPHIMURIUM, Strain/Indicator: TA100, Metabolic Activation: RAT LIVER S-9, PHENOBARBITAL/METHYLCHOLANTHRENE (4%), Method: STANDARD PLATE) | mutagenic call (Test System: AMES SALMONELLA TYPHIMURIUM, Strain/Indicator: TA100, Metabolic Activation: RAT, LIVER, S-9, AROCLOR 1254 (10%), Method: PREINCUBATION) | mutagenic call (Test System: AMES SALMONELLA TYPHIMURIUM, Strain/Indicator: TA1535, Metabolic Activation: HAMSTER, LIVER, S-9, AROCLOR 1254 (10%), Method: PREINCUBATION) | mutagenic call (Test System: AMES SALMONELLA TYPHIMURIUM, Strain/Indicator: TA1535, Metabolic Activation: NONE, Method: PREINCUBATION) | mutagenic call (Test System: AMES SALMONELLA TYPHIMURIUM, Strain/Indicator: TA1535, Metabolic Activation: NONE, Method: STANDARD PLATE) | mutagenic call (Test System: AMES SALMONELLA TYPHIMURIUM, Strain/Indicator: TA1535, Metabolic Activation: RAT LIVER S-9, PHENOBARBITAL/METHYLCHOLANTHRENE (4, 10 OR 20%), Method: STANDARD PLATE) | mutagenic call (Test System: AMES SALMONELLA TYPHIMURIUM, Strain/Indicator: TA1535, Metabolic Activation: RAT, LIVER, S-9, AROCLOR 1254 (10%), Method: PREINCUBATION) | mutagenic call (Test System: E. coli, Strain/Indicator: IC3327, Metabolic Activation: None, Method: Standard Plate) | mutagenic call (Test System: E. coli, Strain/Indicator: IC3327, Metabolic Activation: Rat, Liver, S-9, Phenobarbital-methylcholanthrene mix (4%) + 4 mM NADP, Method: Standard Plate) | mutagenic call (Test System: E. coli, Strain/Indicator: IC3327, Metabolic Activation: Rat, Liver, S-9, Phenobarbital-methylcholanthrene mix (4%), Method: Standard Plate) | mutagenic call (Test System: E. coli, Strain/Indicator: WP2 UVRA, Metabolic Activation: None, Method: Standard Plate) | mutagenic call (Test System: E. coli, Strain/Indicator: WP2 UVRA, Metabolic Activation: Rat, Liver, S-9, Phenobarbital-methylcholanthrene mix (4%) + 4 mM NADP, Method: Standard Plate) | mutagenic call (Test System: E. coli, Strain/Indicator: WP2 UVRA, Metabolic Activation: Rat, Liver, S-9, Phenobarbital-methylcholanthrene mix (4%), Method: Standard Plate) | mutagenic call (Test System: AMES SALMONELLA TYPHIMURIUM, Strain/Indicator: TA98, Metabolic Activation: NONE, Method: STANDARD PLATE) | mutagenic call (Test System: AMES SALMONELLA TYPHIMURIUM, Strain/Indicator: TA98, Metabolic Activation: RAT, LIVER, S-9, PCB, Method: STANDARD PLATE) | mutagenic call (Test System: AMES SALMONELLA TYPHIMURIUM, Strain/Indicator: TA100, Metabolic Activation: RAT, LIVER, S-9, PCB, Method: STANDARD PLATE) |
| --- | --- | --- | --- | --- | --- | --- | --- | --- | --- | --- | --- | --- | --- | --- | --- | --- | --- | --- | --- | --- |
| CC(C)(c1ccc(OCC2CO2)cc1)c1ccc(OCC2CO2)cc1 (stereo unspecified) | active; positive | active; positive | active; positive | active; positive | active; positive | active; positive | active; positive | active; positive | inactive; negative | active; positive | active; positive | active; positive | active; positive | active; positive | active; positive | inactive; negative (authors report as positive based on slope but revertants <2x backgroun | active; positive |  |  |  |
| CC(=O)Nc1ccc(Cc2ccc(N)cc2)cc1 |  |  | inactive; negative |  |  |  |  |  |  |  |  |  |  |  |  |  |  | inactive; negative | inactive; negative | inactive; negative |
